{"source": "patent US20060045928A1", "about": "“Composition containing herbal medicine component for promoting absorption and production method thereof” (priority 2004, published 2006)", "origin": "cited, not measured here", "conditions": "carrot fried with oil"}
{"smiles": "CC1=C(/C=C/C(C)=C/C=C/C(C)=C/C=C/C=C(C)/C=C/C=C(C)/C=C/C2=C(C)CCCC2(C)C)C(C)(C)CCC1", "note": "[β-carotene]", "values": [{"measurement": "absorption rate improvement, compared with eating raw carrot", "result": "5 to 10", "unit": "times"}]}
